In ChEMBL document CHEMBL5126614 (ACS Med Chem Lett, 2022):

Legend:
Glucagon receptor = Glucagon receptor (Homo sapiens, UniProt P47871); experiment: Agonist activity at human GCGR expressed in frozen cells assessed as increase in cAMP production measured after 1 hr by HitHunter luminescence assay; assay type: functional, cell-based
Homo sapiens = species: Homo sapiens; experiment: Selectivity ratio of EC50 for human GCGR expressed in frozen cells to EC50 for human GLP1R expressed in frozen cells; assay type: cell-based
[1] = Agonist activity at rhesus monkey GCGR; design: species or system Macaca mulatta
[2] = Agonist activity at rhesus monkey GLP1R; design: species or system Macaca mulatta
Macaca mulatta = species: Macaca mulatta; experiment: Selectivity ratio of EC50 for rhesus monkey GCGR to EC50 for rhesus monkey GLP1R
[3] = target: Glucagon-like peptide 1 receptor (Homo sapiens, UniProt P43220); experiment: Agonist activity at human GLP1R expressed in frozen cells assessed as increase in cAMP production measured after 1 hr by HitHunter luminescence assay; assay type: functional, cell-based
Chain of Glucagon-like peptide 1 receptor (P43220 whole entry): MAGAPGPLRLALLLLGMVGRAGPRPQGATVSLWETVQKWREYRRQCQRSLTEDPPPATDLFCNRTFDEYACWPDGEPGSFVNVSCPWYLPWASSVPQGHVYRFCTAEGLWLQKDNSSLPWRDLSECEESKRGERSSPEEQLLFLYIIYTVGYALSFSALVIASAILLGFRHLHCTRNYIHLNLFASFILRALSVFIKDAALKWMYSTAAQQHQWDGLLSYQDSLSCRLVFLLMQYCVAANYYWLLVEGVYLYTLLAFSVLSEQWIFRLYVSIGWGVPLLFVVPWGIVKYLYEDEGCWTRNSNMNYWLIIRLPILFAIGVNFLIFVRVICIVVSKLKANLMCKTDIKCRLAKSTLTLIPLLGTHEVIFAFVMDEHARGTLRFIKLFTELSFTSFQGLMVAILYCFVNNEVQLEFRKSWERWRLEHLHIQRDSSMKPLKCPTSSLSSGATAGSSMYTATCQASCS

Chain of Glucagon receptor (P47871 whole entry): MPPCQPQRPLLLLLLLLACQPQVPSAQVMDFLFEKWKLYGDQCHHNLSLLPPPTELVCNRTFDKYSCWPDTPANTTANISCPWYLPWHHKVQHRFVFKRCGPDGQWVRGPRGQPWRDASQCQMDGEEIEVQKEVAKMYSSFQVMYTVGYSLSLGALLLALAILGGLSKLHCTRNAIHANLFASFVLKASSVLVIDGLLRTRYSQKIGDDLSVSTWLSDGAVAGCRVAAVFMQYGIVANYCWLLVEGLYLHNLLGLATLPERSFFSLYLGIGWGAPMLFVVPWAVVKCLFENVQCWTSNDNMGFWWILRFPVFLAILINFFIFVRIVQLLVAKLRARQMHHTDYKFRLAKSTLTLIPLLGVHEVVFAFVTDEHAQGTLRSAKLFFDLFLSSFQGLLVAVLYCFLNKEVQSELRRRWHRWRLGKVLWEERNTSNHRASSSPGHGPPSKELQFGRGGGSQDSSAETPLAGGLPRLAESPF

| Compound | EC50 (Glucagon receptor) | Ratio EC50 (Homo sapiens) | EC50 [1] | EC50 [2] | Ratio EC50 (Macaca mulatta) | EC50 [3] |
| --- | --- | --- | --- | --- | --- | --- |
| CCCCCCCCCCCCCCCC(=O)N[C@@H](CCC(=O)N[C@@H](CCC(=O)NCCCC[C@H](NC(=O)[C@H](CC(=O)O)NC(=O)[C@H](CO)NC(=O)[C@@H](NC(=O)[C@H](Cc1ccccc1)NC(=O)[C@@H](NC(=O)CNC(=O)[C@H](CCC(N)=O)NC(=O)[C@@H](CO)NC(=O)[C@@H](N)Cc1cnc[nH]1)[C@@H](C)O)[C@@H](C)O)C(=O)N[C@@H](CO)C(=O)N[C@@H](CCCCN)C(=O)N[C@@H](Cc1ccc(O)cc1)C(=O)N[C@@H](CC(C)C)C(=O)N[C@@H](CC(=O)O)C(=O)N[C@H](C(=O)N[C@@H](CCCNC(=N)N)C(=O)N[C@@H](C)C(=O)N[C@@H](C)C(=O)N[C@@H](CCC(N)=O)C(=O)N[C@@H](CC(=O)O)C(=O)N[C@@H](Cc1ccccc1)C(=O)N[C@H](C(=O)N[C@@H](CCC(N)=O)C(=O)N[C@@H](Cc1c[nH]c2ccccc12)C(=O)N[C@@H](CC(C)C)C(=O)N[C@@H](CC(C)C)C(=O)N[C@@H](CC(=O)O)C(=O)N[C@H](C(N)=O)[C@@H](C)O)C(C)C)C(C)C)C(=O)O)C(=O)O | 0.062 nM | 0.5 | 0.018 nM | 0.021 nM | 0.9 |  |
| CCCCCCCCCCCCCCCC(=O)N[C@@H](CCC(=O)N[C@@H](CCC(=O)NCCCC[C@H](NC(=O)[C@H](CC(=O)O)NC(=O)[C@H](CO)NC(=O)[C@@H](NC(=O)[C@H](Cc1ccccc1)NC(=O)[C@@H](NC(=O)CNC(=O)[C@H](CCC(N)=O)NC(=O)C(C)(C)NC(=O)[C@@H](N)Cc1cnc[nH]1)[C@@H](C)O)[C@@H](C)O)C(=O)N[C@@H](CO)C(=O)N[C@@H](CCCCN)C(=O)N[C@@H](Cc1ccc(O)cc1)C(=O)N[C@@H](CC(C)C)C(=O)N[C@@H](CC(=O)O)C(=O)NC(C)(C)C(=O)N[C@@H](CCCNC(=N)N)C(=O)N[C@@H](C)C(=O)N[C@@H](C)C(=O)N[C@@H](CCC(N)=O)C(=O)N[C@@H](CC(=O)O)C(=O)N[C@@H](Cc1ccccc1)C(=O)N[C@H](C(=O)N[C@@H](CCC(N)=O)C(=O)N[C@@H](Cc1c[nH]c2ccccc12)C(=O)N[C@@H](CC(C)C)C(=O)N[C@@H](CCSC)C(=O)N[C@@H](CC(=O)O)C(=O)N[C@H](C(=O)N[C@@H](CCCCNC(=O)CC[C@H](N)C(=O)O)C(N)=O)[C@@H](C)O)C(C)C)C(=O)O)C(=O)O | 0.048 nM | 2.1 | 0.064 nM | 0.007 nM | 9.1 | 0.022 nM |
| CCCCCCCCCCCCCCCC(=O)N[C@@H](CCC(=O)N[C@@H](CCC(=O)NCCCC[C@H](NC(=O)[C@H](CC(=O)O)NC(=O)[C@H](CO)NC(=O)[C@@H](NC(=O)[C@H](Cc1ccccc1)NC(=O)[C@@H](NC(=O)CNC(=O)[C@H](CCC(N)=O)NC(=O)C(C)(C)NC(=O)[C@@H](N)Cc1cnc[nH]1)[C@@H](C)O)[C@@H](C)O)C(=O)N[C@@H](CO)C(=O)N[C@@H](CCCCN)C(=O)N[C@@H](Cc1ccc(O)cc1)C(=O)N[C@@H](CC(C)C)C(=O)N[C@@H](CC(=O)O)C(=O)NC(C)(C)C(=O)N[C@@H](CCCNC(=N)N)C(=O)N[C@@H](CCCNC(=N)N)C(=O)N[C@@H](C)C(=O)N[C@@H](CCC(N)=O)C(=O)N[C@@H](CC(=O)O)C(=O)N[C@@H](Cc1ccccc1)C(=O)N[C@H](C(=O)N[C@@H](CCC(N)=O)C(=O)N[C@@H](Cc1c[nH]c2ccccc12)C(=O)N[C@@H](CC(C)C)C(=O)N[C@@H](CCSC)C(=O)N[C@@H](CC(N)=O)C(=O)N[C@H](C(N)=O)[C@@H](C)O)C(C)C)C(=O)O)C(=O)O | 0.035 nM | 1.8 |  |  |  | 0.02 nM |
| CCCCCCCCCCCCCCCC(=O)N[C@@H](CCC(=O)N[C@@H](CCC(=O)NCCCC[C@H](NC(=O)[C@H](CC(=O)O)NC(=O)[C@H](CO)NC(=O)[C@@H](NC(=O)[C@H](Cc1ccccc1)NC(=O)[C@@H](NC(=O)CNC(=O)[C@H](CCC(N)=O)NC(=O)[C@@H](CO)NC(=O)[C@@H](N)Cc1cnc[nH]1)[C@@H](C)O)[C@@H](C)O)C(=O)N[C@@H](CO)C(=O)N[C@@H](CCCCN)C(=O)N[C@@H](Cc1ccc(O)cc1)C(=O)N[C@@H](CC(C)C)C(=O)N[C@@H](CC(=O)O)C(=O)NC(C)(C)C(=O)N[C@@H](CCCNC(=N)N)C(=O)N[C@@H](C)C(=O)N[C@@H](C)C(=O)N[C@@H](CCC(N)=O)C(=O)N[C@@H](CC(=O)O)C(=O)N[C@@H](Cc1ccccc1)C(=O)N[C@H](C(=O)N[C@@H](CCC(N)=O)C(=O)N[C@@H](Cc1c[nH]c2ccccc12)C(=O)N[C@@H](CC(C)C)C(=O)N[C@@H](CC(C)C)C(=O)N[C@@H](CC(=O)O)C(=O)N[C@H](C(N)=O)[C@@H](C)O)C(C)C)C(=O)O)C(=O)O | 0.073 nM | 1 | 0.01 nM | 0.019 nM | 0.5 | 0.074 nM |
| CCCCCCCCCCCCCCCC(=O)N[C@@H](CCC(=O)N[C@@H](CCC(=O)NCCCC[C@H](NC(=O)[C@H](CC(=O)O)NC(=O)[C@H](CO)NC(=O)[C@@H](NC(=O)[C@H](Cc1ccccc1)NC(=O)[C@@H](NC(=O)CNC(=O)[C@H](CCC(N)=O)NC(=O)C(C)(C)NC(=O)[C@@H](N)Cc1cnc[nH]1)[C@@H](C)O)[C@@H](C)O)C(=O)N[C@@H](CO)C(=O)N[C@@H](CCCCN)C(=O)N[C@@H](Cc1ccc(O)cc1)C(=O)N[C@@H](CC(C)C)C(=O)N[C@@H](CC(=O)O)C(=O)NC(C)(C)C(=O)N[C@@H](CCCNC(=N)N)C(=O)N[C@@H](CCCNC(=N)N)C(=O)N[C@@H](C)C(=O)N[C@@H](CCC(N)=O)C(=O)N[C@@H](CC(=O)O)C(=O)N[C@@H](Cc1ccccc1)C(=O)N[C@H](C(=O)N[C@@H](CCC(N)=O)C(=O)N[C@@H](Cc1c[nH]c2ccccc12)C(=O)N[C@@H](CC(C)C)C(=O)N[C@@H](CC(C)C)C(=O)N[C@@H](CC(N)=O)C(=O)N[C@H](C(=O)N[C@@H](CCCCNC(=O)CC[C@H](N)C(=O)O)C(N)=O)[C@@H](C)O)C(C)C)C(=O)O)C(=O)O | 0.006 nM | 1.2 |  |  |  | 0.005 nM |
| GLUCAGON |  |  | 0.003 nM | 0.038 nM |  |  |
| CCCCCCCCCCCCCCCC(=O)N[C@@H](CCC(=O)N[C@@H](CCC(=O)NCCCC[C@H](NC(=O)[C@H](CC(=O)O)NC(=O)[C@H](CO)NC(=O)[C@@H](NC(=O)[C@H](Cc1ccccc1)NC(=O)[C@@H](NC(=O)CNC(=O)[C@H](CCC(N)=O)NC(=O)C(C)(C)NC(=O)[C@@H](N)Cc1cnc[nH]1)[C@@H](C)O)[C@@H](C)O)C(=O)N[C@@H](CO)C(=O)N[C@@H](CCCCN)C(=O)N[C@@H](Cc1ccc(O)cc1)C(=O)N[C@@H](CC(C)C)C(=O)N[C@@H](CC(=O)O)C(=O)NC(C)(C)C(=O)N[C@@H](CCCNC(=N)N)C(=O)N[C@@H](CCCNC(=N)N)C(=O)N[C@@H](C)C(=O)N[C@@H](CCC(N)=O)C(=O)N[C@@H](CC(=O)O)C(=O)N[C@@H](Cc1ccccc1)C(=O)N[C@H](C(=O)N[C@@H](CCC(N)=O)C(=O)N[C@@H](Cc1c[nH]c2ccccc12)C(=O)N[C@@H](CC(C)C)C(=O)N[C@@H](CCSC)C(=O)N[C@@H](CC(N)=O)C(=O)N[C@H](C(=O)N[C@@H](CCCCNC(=O)CC[C@H](N)C(=O)O)C(N)=O)[C@@H](C)O)C(C)C)C(=O)O)C(=O)O | 0.06 nM | 1.5 |  |  |  | 0.04 nM |
